Experimental data as given in PMC8401933 (Molecules, 2021).

Columns and labels:
Assay in all cases: KINOMEscan binding
Conditions in all cases: read-out: Percent Control
PIK3CA(C420R) = molecular target: T1, PIK3CA(C420R) (Homo sapiens, UniProt P42336, C420R)
T1 construct: purchased Eurofins DiscoverX KINOMEscan

FLT3(D835V) = molecular target: T2, FLT3(D835V) (Homo sapiens, UniProt P36888, D835V)
T2 construct: purchased Eurofins DiscoverX KINOMEscan

CTK = molecular target: T3, CTK (Homo sapiens, UniProt P42679)
T3 construct: purchased Eurofins DiscoverX KINOMEscan

PIK3CA(H1047Y) = molecular target: T4, PIK3CA(H1047Y) (Homo sapiens, UniProt P42336, H1047Y)
T4 construct: purchased Eurofins DiscoverX KINOMEscan

IKK-epsilon = molecular target: T5, IKK-epsilon (Homo sapiens, UniProt Q14164)
T5 construct: purchased Eurofins DiscoverX KINOMEscan

TNNI3K = molecular target: T6, TNNI3K (Homo sapiens, UniProt Q59H18)
T6 construct: purchased Eurofins DiscoverX KINOMEscan

FLT3(D835H) = molecular target: T7, FLT3(D835H) (Homo sapiens, UniProt P36888, D835H)
T7 construct: purchased Eurofins DiscoverX KINOMEscan

MAP4K2 = molecular target: T8, MAP4K2 (Homo sapiens, UniProt Q12851)
T8 construct: purchased Eurofins DiscoverX KINOMEscan

[1] = molecular target: T9, ABL1(Y253F)-phosphorylated (Homo sapiens, UniProt P00519, Y253F)
T9 construct: purchased Eurofins DiscoverX KINOMEscan

EPHA5 = molecular target: T10, EPHA5 (Homo sapiens, UniProt P54756)
T10 construct: purchased Eurofins DiscoverX KINOMEscan

JNK1 = molecular target: T11, JNK1 (Homo sapiens, UniProt P45983)
T11 construct: purchased Eurofins DiscoverX KINOMEscan

WNK2 = molecular target: T12, WNK2 (Homo sapiens, UniProt Q9Y3S1)
T12 construct: purchased Eurofins DiscoverX KINOMEscan

DYRK1A = molecular target: T13, DYRK1A (Homo sapiens, UniProt Q13627)
T13 construct: purchased Eurofins DiscoverX KINOMEscan

JNK2 = molecular target: T14, JNK2 (Homo sapiens, UniProt P45984)
T14 construct: purchased Eurofins DiscoverX KINOMEscan

MAP4K4 = molecular target: T15, MAP4K4 (Homo sapiens, UniProt O95819)
T15 construct: purchased Eurofins DiscoverX KINOMEscan

CDC2L2 = molecular target: T16, CDC2L2 (Homo sapiens, UniProt Q9UQ88)
T16 construct: purchased Eurofins DiscoverX KINOMEscan

PFCDPK1(P.falciparum) = molecular target: T17, PFCDPK1(P.falciparum) (Plasmodium falciparum, UniProt P62344)
T17 construct: purchased Eurofins DiscoverX KINOMEscan

KIT(D816V) = molecular target: T18, KIT(D816V) (Homo sapiens, UniProt P10721, D816V)
T18 construct: purchased Eurofins DiscoverX KINOMEscan

CAMKK1 = molecular target: T19, CAMKK1 (Homo sapiens, UniProt Q8N5S9)
T19 construct: purchased Eurofins DiscoverX KINOMEscan

BMX = molecular target: T20, BMX (Homo sapiens, UniProt P51813)
T20 construct: purchased Eurofins DiscoverX KINOMEscan

MEK4 = molecular target: T21, MEK4 (Homo sapiens, UniProt P45985)
T21 construct: purchased Eurofins DiscoverX KINOMEscan

EPHA8 = molecular target: T22, EPHA8 (Homo sapiens, UniProt P29322)
T22 construct: purchased Eurofins DiscoverX KINOMEscan

NDR1 = molecular target: T23, NDR1 (Homo sapiens, UniProt Q15208)
T23 construct: purchased Eurofins DiscoverX KINOMEscan

MAP3K2 = molecular target: T24, MAP3K2 (Homo sapiens, UniProt Q9Y2U5)
T24 construct: purchased Eurofins DiscoverX KINOMEscan

MAK = molecular target: T25, MAK (Homo sapiens, UniProt P20794)
T25 construct: purchased Eurofins DiscoverX KINOMEscan

RIOK3 = molecular target: T26, RIOK3 (Homo sapiens, UniProt O14730)
T26 construct: purchased Eurofins DiscoverX KINOMEscan

RAF1 = molecular target: T27, RAF1 (Homo sapiens, UniProt P04049)
T27 construct: purchased Eurofins DiscoverX KINOMEscan

CLK2 = molecular target: T28, CLK2 (Homo sapiens, UniProt P49760)
T28 construct: purchased Eurofins DiscoverX KINOMEscan

ADCK4 = molecular target: T29, ADCK4 (Homo sapiens, UniProt Q96D53)
T29 construct: purchased Eurofins DiscoverX KINOMEscan

NEK3 = molecular target: T30, NEK3 (Homo sapiens, UniProt P51956)
T30 construct: purchased Eurofins DiscoverX KINOMEscan

PIP5K2B = molecular target: T31, PIP5K2B (Homo sapiens, UniProt P78356)
T31 construct: purchased Eurofins DiscoverX KINOMEscan

MEK3 = molecular target: T32, MEK3 (Homo sapiens, UniProt P46734)
T32 construct: purchased Eurofins DiscoverX KINOMEscan

MAPKAPK5 = molecular target: T33, MAPKAPK5 (Homo sapiens, UniProt Q8IW41)
T33 construct: purchased Eurofins DiscoverX KINOMEscan

PFTK1 = molecular target: T34, PFTK1 (Homo sapiens, UniProt O94921)
T34 construct: purchased Eurofins DiscoverX KINOMEscan

ADCK3 = molecular target: T35, ADCK3 (Homo sapiens, UniProt Q8NI60)
T35 construct: purchased Eurofins DiscoverX KINOMEscan

FLT1 = molecular target: T36, FLT1 (Homo sapiens, UniProt P17948)
T36 construct: purchased Eurofins DiscoverX KINOMEscan

AKT1 = molecular target: T37, AKT1 (Homo sapiens, UniProt P31749)
T37 construct: purchased Eurofins DiscoverX KINOMEscan

QSK = molecular target: T38, QSK (Homo sapiens, UniProt Q9Y2K2)
T38 construct: purchased Eurofins DiscoverX KINOMEscan

CDK4 = molecular target: T39, CDK4 (Homo sapiens, UniProt P11802)
T39 construct: purchased Eurofins DiscoverX KINOMEscan

SBK1 = molecular target: T40, SBK1 (Homo sapiens, UniProt Q52WX2)
T40 construct: purchased Eurofins DiscoverX KINOMEscan

SRMS = molecular target: T41, SRMS (Homo sapiens, UniProt Q9H3Y6)
T41 construct: purchased Eurofins DiscoverX KINOMEscan

PDPK1 = molecular target: T42, PDPK1 (Homo sapiens, UniProt O15530)
T42 construct: purchased Eurofins DiscoverX KINOMEscan

MARK2 = molecular target: T43, MARK2 (Homo sapiens, UniProt Q7KZI7)
T43 construct: purchased Eurofins DiscoverX KINOMEscan

CLK4 = molecular target: T44, CLK4 (Homo sapiens, UniProt Q9HAZ1)
T44 construct: purchased Eurofins DiscoverX KINOMEscan

T18 sequence (P10721 26-976 D816V): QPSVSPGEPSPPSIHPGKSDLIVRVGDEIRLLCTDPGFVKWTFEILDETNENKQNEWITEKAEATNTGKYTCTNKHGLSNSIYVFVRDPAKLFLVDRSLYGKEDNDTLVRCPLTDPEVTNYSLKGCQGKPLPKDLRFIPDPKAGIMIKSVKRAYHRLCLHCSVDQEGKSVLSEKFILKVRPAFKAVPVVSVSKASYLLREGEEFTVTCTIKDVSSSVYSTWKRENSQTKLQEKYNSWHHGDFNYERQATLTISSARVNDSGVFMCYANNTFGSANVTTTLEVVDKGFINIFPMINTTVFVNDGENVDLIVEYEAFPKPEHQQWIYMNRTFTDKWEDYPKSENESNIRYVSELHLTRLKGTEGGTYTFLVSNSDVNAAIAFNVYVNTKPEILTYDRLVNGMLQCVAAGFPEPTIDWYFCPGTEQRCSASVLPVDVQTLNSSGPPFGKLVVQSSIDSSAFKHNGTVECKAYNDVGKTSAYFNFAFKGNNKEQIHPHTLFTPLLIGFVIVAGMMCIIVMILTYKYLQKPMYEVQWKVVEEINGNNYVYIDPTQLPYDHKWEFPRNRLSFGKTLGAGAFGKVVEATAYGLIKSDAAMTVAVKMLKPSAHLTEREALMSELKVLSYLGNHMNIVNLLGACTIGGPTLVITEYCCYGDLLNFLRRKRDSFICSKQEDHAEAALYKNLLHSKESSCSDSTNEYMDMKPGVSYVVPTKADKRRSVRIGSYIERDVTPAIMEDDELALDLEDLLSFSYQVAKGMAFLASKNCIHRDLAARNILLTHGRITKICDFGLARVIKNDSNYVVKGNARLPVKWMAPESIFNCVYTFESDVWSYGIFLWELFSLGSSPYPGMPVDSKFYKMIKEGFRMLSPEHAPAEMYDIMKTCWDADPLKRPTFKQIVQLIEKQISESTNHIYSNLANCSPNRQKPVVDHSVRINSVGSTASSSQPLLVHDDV
T22 sequence (P29322 28-1005): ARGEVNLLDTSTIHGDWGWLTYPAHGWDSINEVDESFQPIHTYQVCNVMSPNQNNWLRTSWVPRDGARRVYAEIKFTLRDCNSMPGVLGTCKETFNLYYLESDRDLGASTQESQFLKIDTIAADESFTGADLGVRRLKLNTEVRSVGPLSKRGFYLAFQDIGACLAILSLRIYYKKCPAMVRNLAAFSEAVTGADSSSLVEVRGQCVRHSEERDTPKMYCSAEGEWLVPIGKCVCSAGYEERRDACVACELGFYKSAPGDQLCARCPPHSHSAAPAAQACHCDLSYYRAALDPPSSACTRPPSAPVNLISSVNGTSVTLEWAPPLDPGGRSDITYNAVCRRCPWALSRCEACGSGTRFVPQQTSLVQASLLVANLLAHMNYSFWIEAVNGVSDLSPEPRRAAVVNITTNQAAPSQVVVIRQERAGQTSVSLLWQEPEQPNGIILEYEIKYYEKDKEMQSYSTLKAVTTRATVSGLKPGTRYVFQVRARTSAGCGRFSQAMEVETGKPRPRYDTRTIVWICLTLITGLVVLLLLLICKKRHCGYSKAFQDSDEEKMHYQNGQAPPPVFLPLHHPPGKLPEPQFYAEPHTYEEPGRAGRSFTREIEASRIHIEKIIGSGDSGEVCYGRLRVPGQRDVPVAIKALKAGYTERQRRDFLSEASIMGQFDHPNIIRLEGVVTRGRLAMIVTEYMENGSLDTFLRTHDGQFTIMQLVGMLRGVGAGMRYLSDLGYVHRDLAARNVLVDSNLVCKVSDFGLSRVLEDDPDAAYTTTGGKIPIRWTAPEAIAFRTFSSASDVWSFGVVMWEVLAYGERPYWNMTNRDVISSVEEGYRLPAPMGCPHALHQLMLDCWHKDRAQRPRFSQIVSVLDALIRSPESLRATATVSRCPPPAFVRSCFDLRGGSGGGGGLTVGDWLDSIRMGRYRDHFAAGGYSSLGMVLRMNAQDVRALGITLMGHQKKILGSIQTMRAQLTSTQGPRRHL
T24 sequence (Q9Y2U5 whole entry): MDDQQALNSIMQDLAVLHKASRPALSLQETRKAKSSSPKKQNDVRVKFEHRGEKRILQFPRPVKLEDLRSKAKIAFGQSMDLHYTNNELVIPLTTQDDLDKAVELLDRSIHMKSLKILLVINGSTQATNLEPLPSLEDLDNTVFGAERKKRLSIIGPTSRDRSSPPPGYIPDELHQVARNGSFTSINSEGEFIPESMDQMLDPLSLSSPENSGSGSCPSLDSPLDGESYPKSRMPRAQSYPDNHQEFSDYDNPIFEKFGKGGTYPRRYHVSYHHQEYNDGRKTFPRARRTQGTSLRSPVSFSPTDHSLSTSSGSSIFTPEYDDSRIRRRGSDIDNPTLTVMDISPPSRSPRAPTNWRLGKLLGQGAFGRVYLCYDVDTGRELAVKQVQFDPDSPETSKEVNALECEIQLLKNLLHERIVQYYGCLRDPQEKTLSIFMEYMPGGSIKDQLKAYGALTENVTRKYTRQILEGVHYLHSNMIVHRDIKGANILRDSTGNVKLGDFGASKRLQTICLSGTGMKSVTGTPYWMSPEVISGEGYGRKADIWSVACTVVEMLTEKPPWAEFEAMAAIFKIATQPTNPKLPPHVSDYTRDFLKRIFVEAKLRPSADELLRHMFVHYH
T5 sequence (Q14164 whole entry): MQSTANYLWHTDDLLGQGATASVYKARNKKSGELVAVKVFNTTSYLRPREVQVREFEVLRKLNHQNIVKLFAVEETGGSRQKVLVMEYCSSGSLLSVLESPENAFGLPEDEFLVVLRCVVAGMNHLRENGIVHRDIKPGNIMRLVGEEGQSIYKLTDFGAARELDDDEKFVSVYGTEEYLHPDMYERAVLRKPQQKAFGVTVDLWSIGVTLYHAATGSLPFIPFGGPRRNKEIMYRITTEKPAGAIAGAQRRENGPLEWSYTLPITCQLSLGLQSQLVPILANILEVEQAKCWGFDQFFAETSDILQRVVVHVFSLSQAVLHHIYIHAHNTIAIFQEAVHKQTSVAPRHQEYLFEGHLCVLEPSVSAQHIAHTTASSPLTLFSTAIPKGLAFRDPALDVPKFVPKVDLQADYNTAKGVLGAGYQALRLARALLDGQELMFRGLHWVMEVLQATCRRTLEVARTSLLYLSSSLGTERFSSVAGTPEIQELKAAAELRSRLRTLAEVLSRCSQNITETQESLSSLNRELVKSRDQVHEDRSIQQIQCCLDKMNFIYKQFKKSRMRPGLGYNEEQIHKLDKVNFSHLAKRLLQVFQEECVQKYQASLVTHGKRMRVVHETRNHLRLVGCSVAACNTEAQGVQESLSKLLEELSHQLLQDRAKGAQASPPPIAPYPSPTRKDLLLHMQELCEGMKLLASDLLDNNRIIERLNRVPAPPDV
T38 sequence (Q9Y2K2 whole entry): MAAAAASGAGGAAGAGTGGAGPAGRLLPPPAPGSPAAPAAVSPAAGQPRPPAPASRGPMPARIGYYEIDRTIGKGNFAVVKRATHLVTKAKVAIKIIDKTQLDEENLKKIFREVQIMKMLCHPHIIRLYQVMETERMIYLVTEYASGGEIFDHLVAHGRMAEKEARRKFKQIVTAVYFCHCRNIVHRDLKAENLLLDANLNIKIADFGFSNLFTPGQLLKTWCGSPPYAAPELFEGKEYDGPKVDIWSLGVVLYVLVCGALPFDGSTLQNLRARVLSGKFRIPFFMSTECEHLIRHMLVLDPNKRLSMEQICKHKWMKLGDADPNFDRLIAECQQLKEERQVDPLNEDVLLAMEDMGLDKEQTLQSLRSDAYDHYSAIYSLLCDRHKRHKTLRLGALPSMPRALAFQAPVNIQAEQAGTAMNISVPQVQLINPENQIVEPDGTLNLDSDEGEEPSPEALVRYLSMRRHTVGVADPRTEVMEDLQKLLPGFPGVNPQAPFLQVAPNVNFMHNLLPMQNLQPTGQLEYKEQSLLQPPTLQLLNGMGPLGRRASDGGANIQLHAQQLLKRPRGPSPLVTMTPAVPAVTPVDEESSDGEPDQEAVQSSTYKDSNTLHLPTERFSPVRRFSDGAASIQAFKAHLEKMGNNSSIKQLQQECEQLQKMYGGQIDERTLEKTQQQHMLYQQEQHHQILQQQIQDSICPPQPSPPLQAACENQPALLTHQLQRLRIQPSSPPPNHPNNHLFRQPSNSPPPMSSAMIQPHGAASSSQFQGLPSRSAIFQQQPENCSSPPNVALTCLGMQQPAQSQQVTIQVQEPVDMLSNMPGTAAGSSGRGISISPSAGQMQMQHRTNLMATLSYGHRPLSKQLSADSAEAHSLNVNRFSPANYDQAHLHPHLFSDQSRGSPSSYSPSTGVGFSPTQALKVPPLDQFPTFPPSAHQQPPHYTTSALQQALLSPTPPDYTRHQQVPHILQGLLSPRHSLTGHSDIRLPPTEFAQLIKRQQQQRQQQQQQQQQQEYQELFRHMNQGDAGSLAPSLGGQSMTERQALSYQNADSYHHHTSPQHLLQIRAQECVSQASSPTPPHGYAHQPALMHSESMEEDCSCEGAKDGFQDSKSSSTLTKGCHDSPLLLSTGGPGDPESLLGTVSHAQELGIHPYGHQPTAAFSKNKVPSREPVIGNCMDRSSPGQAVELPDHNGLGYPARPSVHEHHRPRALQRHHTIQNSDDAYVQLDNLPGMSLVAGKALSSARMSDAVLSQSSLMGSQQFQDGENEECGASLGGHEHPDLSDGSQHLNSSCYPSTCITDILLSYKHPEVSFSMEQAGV
T30 sequence (P51956 whole entry): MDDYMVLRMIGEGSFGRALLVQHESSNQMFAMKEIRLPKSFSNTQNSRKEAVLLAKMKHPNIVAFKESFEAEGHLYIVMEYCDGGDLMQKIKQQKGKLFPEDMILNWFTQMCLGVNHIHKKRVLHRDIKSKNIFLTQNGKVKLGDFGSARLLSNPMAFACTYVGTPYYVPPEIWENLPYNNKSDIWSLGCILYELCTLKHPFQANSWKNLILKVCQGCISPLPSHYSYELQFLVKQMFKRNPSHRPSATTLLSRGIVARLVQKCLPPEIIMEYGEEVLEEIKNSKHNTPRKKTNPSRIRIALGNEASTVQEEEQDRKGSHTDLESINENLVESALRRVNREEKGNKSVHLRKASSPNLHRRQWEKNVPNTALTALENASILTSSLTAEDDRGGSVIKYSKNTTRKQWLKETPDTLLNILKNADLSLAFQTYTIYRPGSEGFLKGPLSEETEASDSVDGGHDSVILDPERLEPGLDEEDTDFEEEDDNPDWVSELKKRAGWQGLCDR

Compound CC(C)NC(=O)COc1cccc(-c2nc(Nc3ccc4[nH]ncc4c3)c3ccccc3n2)c1 [KD025, 2-(3-(4-((1H-indazol-5-yl)amino)quinazolin-2-yl)phenoxy)-N-isopropylacetamide] has a remaining binding at 10 µM (PIK3CA(C420R)) of 86%, a remaining binding at 10 µM (FLT3(D835V)) of 23% and a remaining binding at 10 µM (CTK) of 83%. For the same compound, the remaining binding at 10 µM (PIK3CA(H1047Y)) was 87%, the remaining binding at 10 µM (IKK-epsilon) was 70% and the remaining binding at 10 µM (TNNI3K) was 92%. It also gave a remaining binding at 10 µM (FLT3(D835H)) of 22%, a remaining binding at 10 µM (MAP4K2) of 80% and a remaining binding at 10 µM [1] of 49%. For the same compound, the remaining binding at 10 µM (EPHA5) was 92%, the remaining binding at 10 µM (JNK1) was 70% and the remaining binding at 10 µM (WNK2) was 88%. For the same compound, the remaining binding at 10 µM (DYRK1A) was 72%, the remaining binding at 10 µM (JNK2) was 66% and the remaining binding at 10 µM (MAP4K4) was 87%. The remaining binding at 10 µM (CDC2L2) was 80%, the remaining binding at 10 µM (PFCDPK1(P.falciparum)) was 66% and the remaining binding at 10 µM (KIT(D816V)) was 57%. The remaining binding at 10 µM (CAMKK1) was 94%, the remaining binding at 10 µM (BMX) was 69% and the remaining binding at 10 µM (MEK4) was 100%. The remaining binding at 10 µM (EPHA8) was 88%, the remaining binding at 10 µM (NDR1) was 73% and the remaining binding at 10 µM (MAP3K2) was 95%. The remaining binding at 10 µM (MAK) was 84%, the remaining binding at 10 µM (RIOK3) was 6.7% and the remaining binding at 10 µM (RAF1) was 62%. It also gave a remaining binding at 10 µM (CLK2) of 51%, a remaining binding at 10 µM (ADCK4) of 100% and a remaining binding at 10 µM (NEK3) of 64%. For the same compound, the remaining binding at 10 µM (PIP5K2B) was 9.7%, the remaining binding at 10 µM (MEK3) was 77% and the remaining binding at 10 µM (MAPKAPK5) was 89%. For the same compound, the remaining binding at 10 µM (PFTK1) was 77%, the remaining binding at 10 µM (ADCK3) was 78% and the remaining binding at 10 µM (FLT1) was 95%. The remaining binding at 10 µM (AKT1) was 88%, the remaining binding at 10 µM (QSK) was 88% and the remaining binding at 10 µM (CDK4) was 100%. It also gave a remaining binding at 10 µM (SBK1) of 100%, a remaining binding at 10 µM (SRMS) of 70% and a remaining binding at 10 µM (PDPK1) of 70%. For the same compound, the remaining binding at 10 µM (MARK2) was 71% and the remaining binding at 10 µM (CLK4) was 77%.
